Here are results for nine compounds from PubChem BioAssay (NCI).

Each structure is given as a SMILES string.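 Compound exposure: 48 hours, 5 concentrations, 96-well plates. The concentration for 50% growth inhibition is given as GI50. TGI: total growth inhibition.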

Among the test systems are A549 NSCLC; DU-145 prostate; EKVX NSCLC; HCT-15 colon; HL-60(TB) leukemia; NCI-H522 lung; OVCAR-3 ovarian; OVCAR-5 ovarian; SK-MEL-28 melanoma; SW-620 colon.
Assay in all cases: inhibition of tumour cell growth, NCI panel, 48 h

Regarding `O=S(=O)(CC(O)C(Cl)(Cl)Cl)NNc1ccccc1` (stereo not given), the TGI with A549 NSCLC, in the assay with DU-145 prostate, in the assay with EKVX NSCLC, with HCT-15 colon, in the assay on HL-60(TB) leukemia and in the assay on NCI-H522 lung was over 100 µM throughout. In addition, the TGI in the assay with OVCAR-3 ovarian, in the assay with OVCAR-5 ovarian, with SK-MEL-28 melanoma and in the assay with SW-620 colon was over 100 µM each time.

For the compound `O=C(O)CN(CC(=O)O)c1ccccc1`, the TGI in the assay with A549 NSCLC, with DU-145 prostate, in the assay on EKVX NSCLC, with HCT-15 colon, with HL-60(TB) leukemia and in the assay with NCI-H522 lung was over 100 µM throughout. The TGI in the assay on OVCAR-3 ovarian, in the assay with OVCAR-5 ovarian, in the assay with SK-MEL-28 melanoma and with SW-620 colon was over 100 µM in each case.

Regarding `Cc1cc(Br)c2nsnc2c1[N+](=O)[O-]`, the GI50 in the assay on A549 NSCLC is 4.13 µM; with DU-145 prostate it was 1.66 µM; in the assay on EKVX NSCLC it was 1.76 µM; in the assay with HCT-15 colon it was 4.28 µM; in the assay on HL-60(TB) leukemia, 1.86 µM; in the assay on NCI-H522 lung, 0.176 µM. The GI50 with OVCAR-3 ovarian was 1.69 µM; in the assay on OVCAR-5 ovarian, 4.55 µM; in the assay on SK-MEL-28 melanoma it was 3.34 µM; in the assay with SW-620 colon, 2.15 µM. The TGI in the assay on A549 NSCLC came to 17.3 µM; with DU-145 prostate, 3.09 µM; in the assay on EKVX NSCLC, 5.73 µM; in the assay on HCT-15 colon, 18.4 µM; in the assay with HL-60(TB) leukemia it was 4.56 µM; in the assay with NCI-H522 lung, 0.381 µM. In addition, the TGI came to 3.08 µM in the assay with OVCAR-3 ovarian, 15.9 µM in the assay on OVCAR-5 ovarian, 7.67 µM in the assay with SK-MEL-28 melanoma and 15.1 µM with SW-620 colon.

For the compound `CCc1ccc(Oc2nccc(-c3c(-c4ccc(F)cc4)ncn3C3CCNCC3)n2)cc1`, the GI50 is 5.18 µM in the assay with A549 NSCLC; 5.83 µM with DU-145 prostate; 7.2 µM in the assay on EKVX NSCLC; 6.35 µM in the assay on HCT-15 colon; 5.78 µM with HL-60(TB) leukemia; 4.73 µM with NCI-H522 lung. Besides, the GI50 in the assay on OVCAR-3 ovarian is 10.5 µM; in the assay with OVCAR-5 ovarian it was 6.45 µM; in the assay on SK-MEL-28 melanoma it was 4.73 µM; in the assay with SW-620 colon, 4.35 µM. Besides, the TGI in the assay on A549 NSCLC was 13.3 µM; in the assay on DU-145 prostate it was 14 µM; in the assay on EKVX NSCLC, 14.2 µM; in the assay with HCT-15 colon, 15.8 µM; in the assay with HL-60(TB) leukemia, 11.5 µM; in the assay with NCI-H522 lung it was 8.67 µM. The TGI in the assay on OVCAR-3 ovarian is 14.5 µM; with OVCAR-5 ovarian it was 15.1 µM; with SK-MEL-28 melanoma it was 8.44 µM; with SW-620 colon, 8.74 µM.

Regarding `O=C(NCCSSCCNC(=O)/C(Cc1ccc(O)c(Br)c1)=N/O)/C(Cc1ccc(O)c(Br)c1)=N/O`, the TGI was 15.5 µM in the assay on A549 NSCLC; 12.7 µM in the assay on DU-145 prostate; over 24 µM with EKVX NSCLC; 14.4 µM with HCT-15 colon; over 22.6 µM in the assay on HL-60(TB) leukemia; 4.26 µM in the assay on NCI-H522 lung. In addition, the TGI in the assay with OVCAR-3 ovarian amounted to 6.06 µM; in the assay with OVCAR-5 ovarian, 13.5 µM; with SK-MEL-28 melanoma it was 16.3 µM; in the assay on SW-620 colon, 14.3 µM.

As for `O=C1c2cccc3cccc(c23)C(=O)N1CC#Cc1ccc2c3c(cccc13)C(=O)N(CCN1CCNCC1)C2=O`, the GI50 with A549 NSCLC is 3.19 µM; in the assay on DU-145 prostate, 2.06 µM; in the assay on EKVX NSCLC, 15.7 µM; in the assay with HCT-15 colon it was 14.9 µM; in the assay with HL-60(TB) leukemia, 4.12 µM; in the assay with NCI-H522 lung it was 2.03 µM. Besides, the GI50 in the assay with OVCAR-3 ovarian is 3.6 µM; with OVCAR-5 ovarian, 2.82 µM; in the assay on SK-MEL-28 melanoma, 1.9 µM; in the assay on SW-620 colon, 1.94 µM. Further, the TGI in the assay with A549 NSCLC was 12 µM; in the assay with DU-145 prostate it was 4.12 µM; with EKVX NSCLC, 39.7 µM; with HCT-15 colon, over 100 µM; in the assay with HL-60(TB) leukemia, over 100 µM; in the assay with NCI-H522 lung, 5.04 µM. In addition, the TGI in the assay on OVCAR-3 ovarian is 12.4 µM; with OVCAR-5 ovarian it was 10.3 µM; in the assay on SK-MEL-28 melanoma, 3.55 µM; in the assay with SW-620 colon, 3.79 µM.

With `COc1ccccc1N(C(C)=O)C1=C(Cl)C(=O)c2ccccc2C1=O`, the GI50 was 3.43 µM in the assay on A549 NSCLC; 3.46 µM in the assay on DU-145 prostate; 0.751 µM in the assay on EKVX NSCLC; 1.04 µM in the assay with HCT-15 colon; 2.24 µM in the assay with HL-60(TB) leukemia; 0.33 µM in the assay on NCI-H522 lung. The GI50 is 1.15 µM in the assay on OVCAR-3 ovarian, 2.93 µM in the assay on OVCAR-5 ovarian, 2.4 µM in the assay on SK-MEL-28 melanoma and 1.06 µM with SW-620 colon. For the same compound, the TGI with A549 NSCLC stood at 13.5 µM; with DU-145 prostate it was 12 µM; with EKVX NSCLC, 6.95 µM; with HCT-15 colon, 2.61 µM; in the assay on HL-60(TB) leukemia it was 5.53 µM; with NCI-H522 lung, 1.42 µM. Moreover, the TGI with OVCAR-3 ovarian was 2.72 µM; with OVCAR-5 ovarian it was 11.5 µM; in the assay with SK-MEL-28 melanoma it was 7.03 µM; with SW-620 colon, 2.55 µM.

Regarding `Cc1cc(N2CCN(C)CC2)nc(N(CCNc2ccnc3cc(Cl)ccc23)Cc2ccco2)n1`, the GI50 is 4.1 µM with A549 NSCLC; 5.94 µM in the assay on DU-145 prostate; 5.58 µM with EKVX NSCLC; 2.69 µM in the assay with HCT-15 colon; 2.25 µM with HL-60(TB) leukemia; 3.51 µM in the assay on NCI-H522 lung. The GI50 was 2.62 µM with OVCAR-3 ovarian, 5.89 µM in the assay on OVCAR-5 ovarian, 1.71 µM in the assay on SK-MEL-28 melanoma and 3.04 µM with SW-620 colon. Besides, the TGI with A549 NSCLC was determined as 14.6 µM; in the assay on DU-145 prostate it was 19 µM; in the assay on EKVX NSCLC it was 19.7 µM; with HCT-15 colon, 10.9 µM; in the assay with HL-60(TB) leukemia, 5.97 µM; with NCI-H522 lung, 13.3 µM. In addition, the TGI is 9.95 µM with OVCAR-3 ovarian, 19.4 µM with OVCAR-5 ovarian, 3.31 µM with SK-MEL-28 melanoma and 12.4 µM with SW-620 colon.

Regarding `COc1cccc(C(C#N)NC23CC4CC(CC(C4)C2)C3)c1` (stereo not given), the TGI in the assay with A549 NSCLC, in the assay with DU-145 prostate, with EKVX NSCLC, in the assay with HCT-15 colon, in the assay with HL-60(TB) leukemia and with NCI-H522 lung was over 100 µM each time. In addition, the TGI with OVCAR-3 ovarian, in the assay with OVCAR-5 ovarian, in the assay with SK-MEL-28 melanoma and in the assay on SW-620 colon was over 100 µM in each case.
